The source of these data is ChEMBL document CHEMBL1201862, “PubChem BioAssay data set” (2004).

Among the test systems are BT-549; CAKI-1; DU-145; HOP-62; LOX IMVI; MCF7; MDA-MB-231; NCI-H522; OVCAR-8; PC-3; SR; T47D; TK-10; UACC-62; UO-31; HOP-92; OVCAR-3; OVCAR-4; RXF 393; SK-MEL-2.
What all share (assay): DTP human tumour cell line panel, 48 h

SMILES strings stand for the structures.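 Assay format: 96-well plates, 48-hour exposure. Abbreviation: GI50, concentration required for 50% inhibition of growth.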 The source made the active and inactive calls. Cut-off read from the data, not from the text of the source: active = GI50 up to about 1.1 µM and inactive = higher. Where only a bound is given, the exact number is not on record here.

One may read the GI50 as the concentration giving 50% growth inhibition. Regarding `C=CCOCn1ccc(=O)[nH]c1=O`, the GI50 with BT-549, in the assay on CAKI-1, in the assay on DU-145, with HOP-62, in the assay on LOX IMVI and with MCF7 was > 100 µM (inactive) each time. Further, the GI50 in the assay with MDA-MB-231, in the assay with NCI-H522, in the assay with OVCAR-8, in the assay with PC-3, in the assay with SR and in the assay with T47D was > 100 µM (inactive) in each case. The GI50 in the assay on TK-10, with UACC-62 and in the assay on UO-31 was > 100 µM (inactive) each time.
Consider `O=S(=O)(N/C(=N\O)Nc1ccc(Cl)cc1)c1ccc(S(=O)(=O)c2ccccc2)s1`, for which the GI50 was 15.4 µM (inactive) with BT-549; 21.4 µM (inactive) in the assay with CAKI-1; 19.5 µM (inactive) with DU-145; 26.5 µM (inactive) in the assay on HOP-62; 6.92 µM (inactive) in the assay on HOP-92; 15.5 µM (inactive) with LOX IMVI. For the same compound, the GI50 in the assay on MCF7 is 27 µM (inactive); in the assay on MDA-MB-231, 22.3 µM (inactive); in the assay on NCI-H522, 16.9 µM (inactive); with OVCAR-3 it was 18.4 µM (inactive); with OVCAR-4 it was 14.1 µM (inactive); in the assay on OVCAR-8 it was 24.3 µM (inactive). Also, the GI50 in the assay with PC-3 was 25.9 µM (inactive); in the assay with RXF 393, 24 µM (inactive); with SK-MEL-2, 17.9 µM (inactive); with T47D it was 15.8 µM (inactive); with TK-10, 23.8 µM (inactive); in the assay with UACC-62, 14.9 µM (inactive). Besides, in the assay on UO-31, the GI50 was 19.4 µM (inactive).
With `COC(=O)CC1C(COC(C)=O)OC(n2cc(C)c(=O)[nH]c2=O)C1OC(C)=O` (centres undefined), the GI50 in the assay on BT-549, in the assay with CAKI-1, with DU-145, with HOP-62, in the assay on HOP-92 and in the assay on LOX IMVI was > 100 µM (inactive) in each case. Besides, the GI50 in the assay on MCF7, in the assay on MDA-MB-231, in the assay on NCI-H522, in the assay on OVCAR-3, in the assay on OVCAR-4 and in the assay on OVCAR-8 was > 100 µM (inactive) each time. In addition, the GI50 in the assay on PC-3, in the assay with RXF 393, in the assay with SK-MEL-2, in the assay on T47D, in the assay with TK-10 and in the assay on UACC-62 was > 100 µM (inactive) in each case. Besides, in the assay on UO-31, the GI50 is > 100 µM (inactive).
On to `CN1C(=O)C(c2c[nH]c3ccccc23)N(C)C(=O)C1c1c[nH]c2ccccc12` (centres undefined), for which the GI50 was > 100 µM (inactive) with BT-549; > 100 µM (inactive) with CAKI-1; > 100 µM (inactive) in the assay on DU-145; 63.4 µM (inactive) with HOP-62; 37.2 µM (inactive) with HOP-92; > 100 µM (inactive) in the assay on LOX IMVI. The GI50 in the assay with MCF7 was > 100 µM (inactive); in the assay on MDA-MB-231, 34.2 µM (inactive); in the assay with NCI-H522, > 100 µM (inactive); in the assay with OVCAR-3, > 100 µM (inactive); in the assay on OVCAR-4, > 100 µM (inactive); in the assay with OVCAR-8, > 100 µM (inactive). In addition, the GI50 is > 100 µM (inactive) in the assay with PC-3; 46.9 µM (inactive) with RXF 393; > 100 µM (inactive) with T47D; > 100 µM (inactive) with TK-10; > 100 µM (inactive) in the assay with UACC-62; > 100 µM (inactive) in the assay on UO-31.
For the compound `Cn1c(=O)c2ccccc2c2ccccc21`, the GI50 was 39.6 µM (inactive) with BT-549; 24.7 µM (inactive) in the assay with CAKI-1; 47.4 µM (inactive) in the assay on DU-145; 65.8 µM (inactive) in the assay on HOP-62; 48.3 µM (inactive) in the assay on HOP-92; 64.4 µM (inactive) with LOX IMVI. Further, the GI50 is 31.5 µM (inactive) in the assay with MCF7; 56.6 µM (inactive) in the assay on MDA-MB-231; 36.6 µM (inactive) in the assay with NCI-H522; 52.7 µM (inactive) in the assay with OVCAR-3; 66.7 µM (inactive) with OVCAR-4; 45.9 µM (inactive) in the assay with OVCAR-8. Further, the GI50 with PC-3 is 71.6 µM (inactive); in the assay with RXF 393 it was 40.6 µM (inactive); in the assay on SK-MEL-2, 89.1 µM (inactive); in the assay on T47D, 57.8 µM (inactive); in the assay on TK-10 it was 34.1 µM (inactive); in the assay with UACC-62, 39.8 µM (inactive). For the same compound, in the assay with UO-31, the GI50 was 42.4 µM (inactive).
Consider `COc1ccc(/C=C/c2cnnc3ccccc23)cc1OC`, for which the GI50 is > 10 µM (inactive) with BT-549; > 10 µM (inactive) with CAKI-1; > 10 µM (inactive) with DU-145; > 10 µM (inactive) in the assay with HOP-62; 3.7 µM (inactive) in the assay on HOP-92; > 10 µM (inactive) in the assay with LOX IMVI. Further, the GI50 with MCF7, in the assay with MDA-MB-231, in the assay with NCI-H522, in the assay with OVCAR-3, in the assay on OVCAR-4 and in the assay with OVCAR-8 was > 10 µM (inactive) throughout. Also, the GI50 in the assay with PC-3, in the assay on RXF 393, in the assay with SK-MEL-2, in the assay on T47D, in the assay on TK-10 and in the assay on UACC-62 was > 10 µM (inactive) in each case. The GI50 in the assay with UO-31 was 0.0374 µM (active).
For `CCN(CC)C(=C(C(Cl)=C(Cl)Cl)[N+](=O)[O-])N(CC)CC`, the GI50 with BT-549 is 83 µM (inactive); in the assay with CAKI-1, 34.8 µM (inactive); in the assay with DU-145, 62.4 µM (inactive); in the assay with HOP-62, > 100 µM (inactive); in the assay with LOX IMVI it was 41 µM (inactive); in the assay on MCF7 it was > 100 µM (inactive). Also, the GI50 was > 100 µM (inactive) with MDA-MB-231; 37.5 µM (inactive) with OVCAR-3; > 100 µM (inactive) in the assay with OVCAR-4; > 100 µM (inactive) in the assay on OVCAR-8; > 100 µM (inactive) with PC-3; 17.3 µM (inactive) with RXF 393. The GI50 was 33.7 µM (inactive) with SR; 61.8 µM (inactive) with T47D; > 100 µM (inactive) in the assay on TK-10; 49.4 µM (inactive) in the assay on UACC-62; 30.2 µM (inactive) with UO-31.
Consider `N#CCOc1cccc(C2(N3CC=CCC3)CCCCC2)c1`, for which the GI50 with BT-549 is > 100 µM (inactive); in the assay on CAKI-1 it was > 100 µM (inactive); in the assay on DU-145, > 100 µM (inactive); with HOP-62, > 100 µM (inactive); in the assay on LOX IMVI it was 97.9 µM (inactive); with MCF7, > 100 µM (inactive). In addition, the GI50 in the assay on MDA-MB-231 is > 100 µM (inactive); in the assay with NCI-H522 it was 57.8 µM (inactive); in the assay with OVCAR-3, > 100 µM (inactive); in the assay with OVCAR-4, > 100 µM (inactive); in the assay on OVCAR-8, 86.9 µM (inactive); in the assay on PC-3, > 100 µM (inactive). In addition, the GI50 in the assay on SK-MEL-2, in the assay on SR, in the assay on T47D, in the assay on TK-10, in the assay on UACC-62 and in the assay with UO-31 was > 100 µM (inactive) in each case.
